The NIST ThermoML archive (doi:10.1016/j.fluid.2011.11.022)
± gives the expanded uncertainty stated by the source.

Assay: wn = mass fraction of the nth substance listed
Conditions: Liquid, w2 = 0.5; for mass density: Buoyancy - hydrostatic balance; for viscosity: Falling or rolling sphere viscometry

OCCOCCO [diethylene glycol] + OCCO
mass density (298.15 K, 98 kPa): 1112.21 ± 6.7 kg/m3
viscosity (298.15 K, 98 kPa): 21.12 ± 0.86 mPa·s
mass density (298.15 K, 49030 kPa): 1135.06 ± 6.8 kg/m3
viscosity (298.15 K, 49030 kPa): 28.23 ± 1.1 mPa·s
mass density (298.15 K, 98060 kPa): 1151.37 ± 6.9 kg/m3
viscosity (298.15 K, 98060 kPa): 36.95 ± 1.5 mPa·s
mass density (298.15 K, 196130 kPa): 1178.94 ± 7.1 kg/m3
viscosity (298.15 K, 196130 kPa): 60.47 ± 2.4 mPa·s
mass density (322.33 K, 49030 kPa): 1121.67 ± 6.7 kg/m3
viscosity (322.33 K, 49030 kPa): 10.74 ± 0.44 mPa·s
mass density (322.34 K, 98 kPa): 1097.38 ± 6.6 kg/m3
viscosity (322.34 K, 98 kPa): 8.316 ± 0.34 mPa·s
mass density (332.21 K, 196130 kPa): 1162.18 ± 7 kg/m3
viscosity (332.21 K, 196130 kPa): 20.76 ± 0.85 mPa·s
mass density (332.33 K, 98060 kPa): 1132.91 ± 6.8 kg/m3
viscosity (332.33 K, 98060 kPa): 13.57 ± 0.55 mPa·s
mass density (353.8 K, 196130 kPa): 1150.15 ± 6.9 kg/m3
viscosity (353.8 K, 196130 kPa): 7.683 ± 0.31 mPa·s
mass density (353.83 K, 98 kPa): 1075.19 ± 6.5 kg/m3
viscosity (353.83 K, 98 kPa): 3.488 ± 0.14 mPa·s
mass density (353.87 K, 49030 kPa): 1101.62 ± 6.6 kg/m3
viscosity (353.87 K, 49030 kPa): 4.407 ± 0.18 mPa·s
mass density (354.1 K, 98060 kPa): 1119.74 ± 6.7 kg/m3
viscosity (354.1 K, 98060 kPa): 5.334 ± 0.22 mPa·s
mass density (392.87 K, 98 kPa): 1043.14 ± 6.3 kg/m3
viscosity (392.87 K, 98 kPa): 1.641 ± 0.067 mPa·s
mass density (393.06 K, 49030 kPa): 1072.66 ± 6.4 kg/m3
viscosity (393.06 K, 49030 kPa): 1.986 ± 0.081 mPa·s
mass density (393.3 K, 98060 kPa): 1093.17 ± 6.6 kg/m3
viscosity (393.3 K, 98060 kPa): 2.36 ± 0.096 mPa·s
mass density (393.6 K, 196130 kPa): 1126.12 ± 6.8 kg/m3
viscosity (393.6 K, 196130 kPa): 3.232 ± 0.13 mPa·s
mass density (435.93 K, 49030 kPa): 1035.82 ± 6.2 kg/m3
viscosity (435.93 K, 49030 kPa): 1.09 ± 0.044 mPa·s
mass density (435.98 K, 98060 kPa): 1060.12 ± 6.4 kg/m3
viscosity (435.98 K, 98060 kPa): 1.293 ± 0.053 mPa·s
mass density (436.08 K, 98 kPa): 1001.82 ± 6 kg/m3
viscosity (436.08 K, 98 kPa): 0.885 ± 0.036 mPa·s
mass density (436.13 K, 196130 kPa): 1097.25 ± 6.6 kg/m3
viscosity (436.13 K, 196130 kPa): 1.731 ± 0.07 mPa·s
mass density (462.52 K, 98060 kPa): 1037.39 ± 6.2 kg/m3
viscosity (462.52 K, 98060 kPa): 0.989 ± 0.04 mPa·s
mass density (462.54 K, 196130 kPa): 1077.67 ± 6.5 kg/m3
viscosity (462.54 K, 196130 kPa): 1.313 ± 0.053 mPa·s
mass density (462.73 K, 49030 kPa): 1011.05 ± 6.1 kg/m3
viscosity (462.73 K, 49030 kPa): 0.791 ± 0.032 mPa·s
mass density (462.75 K, 98 kPa): 973.24 ± 5.8 kg/m3
viscosity (462.75 K, 98 kPa): 0.671 ± 0.027 mPa·s

OCCOCCOCCO [triethylene glycol] + OCCO
mass density (298.13 K, 98 kPa): 1115.1 ± 6.7 kg/m3
viscosity (298.13 K, 98 kPa): 26.24 ± 1.1 mPa·s
mass density (298.15 K, 49030 kPa): 1136.47 ± 6.8 kg/m3
viscosity (298.15 K, 49030 kPa): 35.89 ± 1.5 mPa·s
mass density (298.15 K, 98060 kPa): 1152.73 ± 6.9 kg/m3
viscosity (298.15 K, 98060 kPa): 48.05 ± 2 mPa·s
mass density (298.15 K, 196130 kPa): 1180.8 ± 7.1 kg/m3
viscosity (298.15 K, 196130 kPa): 82.26 ± 3.6 mPa·s
mass density (322 K, 196130 kPa): 1169.4 ± 7 kg/m3
viscosity (322 K, 196130 kPa): 27.05 ± 1.1 mPa·s
mass density (322.25 K, 98060 kPa): 1139.05 ± 6.8 kg/m3
viscosity (322.25 K, 98060 kPa): 17.16 ± 0.7 mPa·s
mass density (322.32 K, 49030 kPa): 1121.83 ± 6.7 kg/m3
viscosity (322.32 K, 49030 kPa): 13.34 ± 0.55 mPa·s
mass density (322.36 K, 98 kPa): 1101.75 ± 6.6 kg/m3
viscosity (322.36 K, 98 kPa): 10.13 ± 0.42 mPa·s
mass density (355.34 K, 98 kPa): 1079 ± 6.5 kg/m3
viscosity (355.34 K, 98 kPa): 3.999 ± 0.16 mPa·s
mass density (355.56 K, 49030 kPa): 1099.04 ± 6.6 kg/m3
viscosity (355.56 K, 49030 kPa): 5.082 ± 0.21 mPa·s
mass density (355.67 K, 98060 kPa): 1118.11 ± 6.7 kg/m3
viscosity (355.67 K, 98060 kPa): 6.302 ± 0.26 mPa·s
mass density (355.76 K, 196130 kPa): 1151.43 ± 6.9 kg/m3
viscosity (355.76 K, 196130 kPa): 9.251 ± 0.38 mPa·s
mass density (392.2 K, 98 kPa): 1047.37 ± 6.3 kg/m3
viscosity (392.2 K, 98 kPa): 1.946 ± 0.08 mPa·s
mass density (392.33 K, 49030 kPa): 1070.25 ± 6.4 kg/m3
viscosity (392.33 K, 49030 kPa): 2.418 ± 0.099 mPa·s
mass density (392.39 K, 98060 kPa): 1092.45 ± 6.6 kg/m3
viscosity (392.39 K, 98060 kPa): 2.907 ± 0.12 mPa·s
mass density (392.77 K, 196130 kPa): 1129.25 ± 6.8 kg/m3
viscosity (392.77 K, 196130 kPa): 4.045 ± 0.17 mPa·s
mass density (434.54 K, 98060 kPa): 1059.58 ± 6.4 kg/m3
viscosity (434.54 K, 98060 kPa): 1.581 ± 0.065 mPa·s
mass density (434.56 K, 49030 kPa): 1032.55 ± 6.2 kg/m3
viscosity (434.56 K, 49030 kPa): 1.33 ± 0.054 mPa·s
mass density (434.59 K, 98 kPa): 1002.88 ± 6 kg/m3
viscosity (434.59 K, 98 kPa): 1.058 ± 0.043 mPa·s
mass density (434.7 K, 196130 kPa): 1101.01 ± 6.6 kg/m3
viscosity (434.7 K, 196130 kPa): 2.158 ± 0.088 mPa·s
mass density (462.27 K, 196130 kPa): 1080.63 ± 6.5 kg/m3
viscosity (462.27 K, 196130 kPa): 1.616 ± 0.066 mPa·s
mass density (462.4 K, 49030 kPa): 1004.97 ± 6 kg/m3
viscosity (462.4 K, 49030 kPa): 0.996 ± 0.041 mPa·s
mass density (462.47 K, 98060 kPa): 1035.79 ± 6.2 kg/m3
viscosity (462.47 K, 98060 kPa): 1.196 ± 0.049 mPa·s
mass density (462.61 K, 98 kPa): 968.72 ± 5.8 kg/m3
viscosity (462.61 K, 98 kPa): 0.705 ± 0.029 mPa·s

OCCOCCOCCO [triethylene glycol] + OCCOCCO
mass density (298.15 K, 98 kPa): 1116.28 ± 6.7 kg/m3
viscosity (298.15 K, 98 kPa): 32.4 ± 1.3 mPa·s
mass density (298.15 K, 49030 kPa): 1140.16 ± 6.8 kg/m3
viscosity (298.15 K, 49030 kPa): 48.05 ± 2 mPa·s
mass density (298.15 K, 98060 kPa): 1157.54 ± 7 kg/m3
viscosity (298.15 K, 98060 kPa): 68.97 ± 2.9 mPa·s
mass density (298.15 K, 196130 kPa): 1186.23 ± 7.1 kg/m3
viscosity (298.15 K, 196130 kPa): 134.9 ± 6.8 mPa·s
mass density (322.18 K, 196130 kPa): 1172.01 ± 7 kg/m3
viscosity (322.18 K, 196130 kPa): 39.19 ± 1.6 mPa·s
mass density (322.32 K, 98060 kPa): 1143.4 ± 6.9 kg/m3
viscosity (322.32 K, 98060 kPa): 22.33 ± 0.92 mPa·s
mass density (322.38 K, 49030 kPa): 1125.8 ± 6.8 kg/m3
viscosity (322.38 K, 49030 kPa): 16.39 ± 0.67 mPa·s
mass density (322.43 K, 98 kPa): 1104.5 ± 6.6 kg/m3
viscosity (322.43 K, 98 kPa): 11.71 ± 0.48 mPa·s
mass density (355.15 K, 98 kPa): 1083.98 ± 6.5 kg/m3
viscosity (355.15 K, 98 kPa): 4.468 ± 0.18 mPa·s
mass density (355.59 K, 49030 kPa): 1103.74 ± 6.6 kg/m3
viscosity (355.59 K, 49030 kPa): 5.935 ± 0.24 mPa·s
mass density (355.77 K, 98060 kPa): 1122.4 ± 6.7 kg/m3
viscosity (355.77 K, 98060 kPa): 7.663 ± 0.32 mPa·s
mass density (355.95 K, 196130 kPa): 1151.5 ± 6.9 kg/m3
viscosity (355.95 K, 196130 kPa): 12.1 ± 0.5 mPa·s
mass density (391.02 K, 98 kPa): 1055.33 ± 6.3 kg/m3
viscosity (391.02 K, 98 kPa): 2.179 ± 0.089 mPa·s
mass density (391.29 K, 49030 kPa): 1076.96 ± 6.5 kg/m3
viscosity (391.29 K, 49030 kPa): 2.772 ± 0.11 mPa·s
mass density (391.39 K, 98060 kPa): 1098.19 ± 6.6 kg/m3
viscosity (391.39 K, 98060 kPa): 3.484 ± 0.14 mPa·s
mass density (391.57 K, 196130 kPa): 1129.2 ± 6.8 kg/m3
viscosity (391.57 K, 196130 kPa): 5.188 ± 0.21 mPa·s
mass density (432.13 K, 98 kPa): 1014.59 ± 6.1 kg/m3
viscosity (432.13 K, 98 kPa): 1.172 ± 0.048 mPa·s
mass density (432.65 K, 98060 kPa): 1067.76 ± 6.4 kg/m3
viscosity (432.65 K, 98060 kPa): 1.884 ± 0.077 mPa·s
mass density (432.68 K, 196130 kPa): 1102.63 ± 6.6 kg/m3
viscosity (432.68 K, 196130 kPa): 2.658 ± 0.11 mPa·s
mass density (432.76 K, 49030 kPa): 1041.87 ± 6.3 kg/m3
viscosity (432.76 K, 49030 kPa): 1.51 ± 0.062 mPa·s
mass density (472.77 K, 196130 kPa): 1075.84 ± 6.5 kg/m3
viscosity (472.77 K, 196130 kPa): 1.747 ± 0.072 mPa·s
mass density (472.82 K, 98060 kPa): 1035.69 ± 6.2 kg/m3
viscosity (472.82 K, 98060 kPa): 1.236 ± 0.051 mPa·s
mass density (473.06 K, 49030 kPa): 1003.66 ± 6 kg/m3
viscosity (473.06 K, 49030 kPa): 1.008 ± 0.041 mPa·s
mass density (473.1 K, 98 kPa): 965.58 ± 5.8 kg/m3
viscosity (473.1 K, 98 kPa): 0.716 ± 0.029 mPa·s
